Paper PMC3034309 (European journal of pharmacology, 2011)

Legend:
[1] = test system: ICR mice; assay: Tail flick antinociception; conditions: for ED50 TF (tail flick antinociception): mice, i.v., 95% confidence limits in parentheses
[2] = target: T1, cannabinoid CB1 receptor (Rattus norvegicus, UniProt P20272); assay: [3H]CP55,940 binding, cannabinoid CB1 receptor, rat cerebellar membranes; conditions: read-out: Ki (nM) CB1, 1 nM [3H]CP55,940, mean ± S.E.M.
[3] = test system: ICR mice; assay: Suppression of spontaneous activity; conditions: i.v.; for ED50 SA (suppression of spontaneous activity): 95% confidence limits in parentheses
[4] = target: mouse cannabinoid CB2 receptors (Mus musculus, UniProt P47936); assay: [3H]CP55,940 binding, cannabinoid CB2 receptor, CB2-CHO cell membranes; conditions: for better affinity for cannabinoid CB2 receptors than for CB1: ratio of CB1 to CB2 affinity; for Ki: read-out: Ki (nM) CB2, CB2-CHO cell membranes, 1 nM [3H]CP55,940, mean ± S.E.M.
Sequence of mouse cannabinoid CB2 receptors (P47936 whole entry): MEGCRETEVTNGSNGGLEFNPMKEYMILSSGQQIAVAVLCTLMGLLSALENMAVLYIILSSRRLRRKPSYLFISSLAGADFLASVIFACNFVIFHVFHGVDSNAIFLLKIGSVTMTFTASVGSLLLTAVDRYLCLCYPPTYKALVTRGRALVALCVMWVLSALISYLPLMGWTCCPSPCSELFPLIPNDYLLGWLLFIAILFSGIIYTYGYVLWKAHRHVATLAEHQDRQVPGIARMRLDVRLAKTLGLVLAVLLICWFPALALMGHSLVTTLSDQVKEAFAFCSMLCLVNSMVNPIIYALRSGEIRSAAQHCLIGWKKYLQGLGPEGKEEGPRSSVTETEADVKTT

[5] = test system: ICR mice; assay: Rectal temperature; conditions: i.v., 95% confidence limits in parentheses
[6] = test system: ICR mice; assay: Mouse in vivo screening test battery as a whole, agonist tests
[7] = target: T1, cannabinoid CB1 receptor; assay: Agonist-stimulated [35S]GTPγS binding in rat cerebellar membranes; assay type: biochemical
[8] = test system: mouse isolated vas deferens; assay: Mouse vas deferens procedure; conditions: for dextral shift of WIN 55,212-2 log concentration response curve: 95% confidence limits in parentheses; for mean change in twitch height: compound alone
[9] = test system: ICR mice; assay: Antagonist tests in the mouse in vivo test battery
[10] = test system: ICR mice; assay: Locomotor trials associated with the feeding experiment; assay type: in vivo, mouse; conditions: 10 and 30 mg/kg doses, i.p., 30 min before 10-min test
[11] = test system: C57/Bl6J mice; assay: Δ9-tetrahydrocannabinol drug discrimination in mice; assay type: in vivo, mouse; conditions: mice trained to discriminate 5.6 mg/kg Δ9-tetrahydrocannabinol from vehicle, s.c.
[12] = test system: ICR mice; assay: Mouse feeding experiment; assay type: in vivo; conditions: mice food deprived for 24 hr, injected i.p. 30 min before 1 h session
[13] = target: human cannabinoid CB1 receptors (Homo sapiens, UniProt P21554); assay: Inhibition of forskolin-stimulated cyclic AMP production in CHO cells; assay type: cell-based; conditions: read-out: Emax, inhibition of forskolin-induced stimulation of cyclic AMP
Sequence of human cannabinoid CB1 receptors (P21554 whole entry): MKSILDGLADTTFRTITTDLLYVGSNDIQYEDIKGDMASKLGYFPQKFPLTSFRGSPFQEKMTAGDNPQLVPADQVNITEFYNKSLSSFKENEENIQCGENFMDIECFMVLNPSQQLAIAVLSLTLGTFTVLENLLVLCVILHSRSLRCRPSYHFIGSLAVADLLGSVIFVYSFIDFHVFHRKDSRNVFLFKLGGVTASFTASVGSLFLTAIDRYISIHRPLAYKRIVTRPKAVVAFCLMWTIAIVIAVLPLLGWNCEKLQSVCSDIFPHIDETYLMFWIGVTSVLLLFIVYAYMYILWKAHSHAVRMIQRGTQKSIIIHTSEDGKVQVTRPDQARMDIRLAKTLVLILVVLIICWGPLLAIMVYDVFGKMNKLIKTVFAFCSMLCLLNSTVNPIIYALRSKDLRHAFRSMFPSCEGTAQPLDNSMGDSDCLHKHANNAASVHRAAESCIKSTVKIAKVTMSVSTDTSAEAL

T1 sequence (P20272 whole entry): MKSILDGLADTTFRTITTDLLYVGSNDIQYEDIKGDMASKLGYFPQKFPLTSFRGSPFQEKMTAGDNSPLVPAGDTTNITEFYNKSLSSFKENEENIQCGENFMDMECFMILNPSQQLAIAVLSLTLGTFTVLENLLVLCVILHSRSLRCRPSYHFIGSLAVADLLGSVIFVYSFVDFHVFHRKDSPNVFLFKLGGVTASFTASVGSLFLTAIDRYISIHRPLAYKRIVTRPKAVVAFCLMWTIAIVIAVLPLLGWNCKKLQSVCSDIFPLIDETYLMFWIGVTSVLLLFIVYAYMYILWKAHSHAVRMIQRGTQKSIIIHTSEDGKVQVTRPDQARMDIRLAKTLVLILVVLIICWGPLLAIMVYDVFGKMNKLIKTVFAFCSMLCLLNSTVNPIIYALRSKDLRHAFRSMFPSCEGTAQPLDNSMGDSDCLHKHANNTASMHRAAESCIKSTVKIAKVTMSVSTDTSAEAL

Q: How did the “ED50 TF (tail flick antinociception)” value [1] turn out when `CCS(=O)(=O)NCCCC#CCc1cc(O)c2c(c1)OC(C)(C)[C@@H]1CC=C(C)C[C@@H]21` [O-1991] was run?
A: 0.9 (0.6-1.4) mg/kg

Q: What about the Ki [2] of the same compound?
A: 30 ± 13 nM

Q: And the “ED50 SA (suppression of spontaneous activity)” value (“ED50 SA” for short) [3]?
A: 2 (1-3) mg/kg

Q: What about the “better affinity for cannabinoid CB2 receptors than for CB1” value [4] of the same compound?
A: 21 fold

Q: And the Ki [4]?
A: 1.4 ± 0.2 nM

Q: What about the “ED50 RT (rectal temperature)” value [5] of the same compound?
A: 0.8 (0.4-1.6) mg/kg

Q: With `CCCCS(=O)(=O)NCCCC#CCc1cc(O)c2c(c1)OC(C)(C)C1CC=C(C)CC21` (centres unmarked) [O-1993] as the compound, how does the “ED50 TF (tail flick antinociception)” value [1] read?
A: 14 (7-27) mg/kg

Q: And the “decrease of in vivo potencies as compared to O-1991” value ([6]; across the three in vivo tests (SA, TF, RT))?
A: 4- to 14 fold

Q: What about the Ki [2] of the same compound?
A: 70 ± 10 nM

Q: What about the “ED50 SA” value [3] of the same compound?
A: 8 (3-16) mg/kg

Q: And the Ki [4]?
A: 86 ± 7 nM

Q: And the “ED50 RT (rectal temperature)” value [5]?
A: 12 (9-15) mg/kg

Q: What does the source list for `CC1=CC[C@@H]2[C@@H](C1)c1c(O)cc(CC#CCCCNS(C)(=O)=O)cc1OC2(C)C` [O-2050]?
A: maximum stimulation of [35S]GTPγS binding ([7]; compound alone, rat cerebellar membranes): 11 ± 3%; stimulation by CP 55,940 that was not blocked ([7]; in presence of 1000 nM CP55,940): 11 ± 6%; dextral shift of WIN 55,212-2 log concentration response curve ([8]; 1 nM O-2050): 2.8 (1.7 - 4.4); dextral shift of WIN 55,212-2 log concentration response curve ([8]; 10 nM O-2050): 7.5 (4.1 - 13); dextral shift of WIN 55,212-2 log concentration response curve ([8]; 31.62 nM O-2050): 15.0 (9.9 - 21.9); dextral shift of WIN 55,212-2 log concentration response curve ([8]; 100 nM O-2050): 103.9 (60.0 - 180.7); mean change in twitch height ([8]; 30 min after 1 nM): 6.03±6.21%; mean change in twitch height ([8]; 30 min after 10 nM): −0.45±5.9%; mean change in twitch height ([8]; 30 min after 31.62 nM): 3.39±9.4%; mean change in twitch height ([8]; 30 min after 100 nM): 3.8±8.1%; mean change in twitch height ([8]; 30 min after 1000 nM): 6.19±16.4%; Schild plot slope ([8]; interaction with WIN 55,212-2): 0.83±0.18; Kb ([8]; read-out: mean KB value, antagonism of WIN 55,212-2): 1 ± 0.1 nM; delayed antagonist effects ([9]; 30 mg/kg injected 24 hr prior to 3 mg/kg Δ9-tetrahydrocannabinol, data not shown): did not have delayed antagonist effects; antagonism of in vivo effects of WIN 55,212-2 ([9]; doses of up to 3 and 10 mg/kg i.v., vs 1 mg/kg WIN 55,212-2, data not shown): did not antagonize; antagonism of in vivo pharmacological effects of Δ9-tetrahydrocannabinol ([9]; doses up to 30 mg/kg i.v., vs 3 mg/kg Δ9-tetrahydrocannabinol i.v.): did not antagonize; increase in antinociception as compared to vehicle ([1]; 10 μg i.c.v., with dimethyl sulfoxide i.v.): 2 fold; locomotor activity [10]: significant locomotor stimulation; Δ9-tetrahydrocannabinol-like discriminative stimulus effects [11]: produced discriminative stimulus effects that were similar to those of Δ^9-tetrahydrocannabinol; activity in the battery of three in vivo tests ([6]; mice, i.v., up to 30 mg/kg): not active in any of the three in vivo tests; Ki [2]: 2.5 ± 0.4 nM; food intake [12]: significant and dose-dependent decreases in food intake; SA: percent effect at the highest dose ([3]; 30 mg/kg (highest dose)): 69% @ 30; better affinity for cannabinoid CB2 receptors than for CB1 [4]: 12 fold; Ki [4]: 0.2 ± 0.1 nM

Q: With `CCCCCCC(C)(C)c1ccc([C@@H]2C[C@H](O)CC[C@H]2CCCO)c(O)c1` [CP55,940, (−)-cis-3-[2-hydroxy-4(1,1-dimethyl-heptyl)phenyl]-trans-4-(3-hydroxy-propyl)cyclohexanol] as the compound, how does the Emax [13] read?
A: 74.4%

Q: How did the “ED50 TF (tail flick antinociception)” value [1] turn out when `CCS(=O)(=O)NCCCCC(C)(C)c1cc(O)c2c(c1)OC(C)(C)C1CC=C(C)CC21` (centres unmarked) [O-2113] was run?
A: 0.3 (0.1-1) mg/kg

Q: And the Ki [2]?
A: 1.7 ± 0.3 nM

Q: And the “ED50 SA” value [3]?
A: 0.4 (0.1-1.8) mg/kg

Q: What about the “better affinity for cannabinoid CB2 receptors than for CB1” value [4] of the same compound?
A: 21 fold

Q: And the Ki [4]?
A: 0.08 ± 0.02 nM

Q: What about the “ED50 RT (rectal temperature)” value [5] of the same compound?
A: 1.4 (0.3-4.6) mg/kg
